Series [1] can be described thus: Cytotoxicity against African green monkey Vero cells after 72 hrs by resazurin assay. Format: cell-based. To be noted: chlorocebus sabaeus. For orientation: Resazurin is reduced to fluorescent resorufin, in cell work by metabolically active cells.
For series [2], the target named is Cruzipain (Trypanosoma cruzi) (UniProt P25779). Nature of the series: Inhibition of Trypanosoma cruzi cruzipain using Z-Phe-Arg-AMC as substrate at 0.3 uM incubated for 5 mins prior to substrate addition measured after 10 mins by fluorescence assay.
Cruzipain (Trypanosoma cruzi), sequence (P25779 123-467 limits assumed): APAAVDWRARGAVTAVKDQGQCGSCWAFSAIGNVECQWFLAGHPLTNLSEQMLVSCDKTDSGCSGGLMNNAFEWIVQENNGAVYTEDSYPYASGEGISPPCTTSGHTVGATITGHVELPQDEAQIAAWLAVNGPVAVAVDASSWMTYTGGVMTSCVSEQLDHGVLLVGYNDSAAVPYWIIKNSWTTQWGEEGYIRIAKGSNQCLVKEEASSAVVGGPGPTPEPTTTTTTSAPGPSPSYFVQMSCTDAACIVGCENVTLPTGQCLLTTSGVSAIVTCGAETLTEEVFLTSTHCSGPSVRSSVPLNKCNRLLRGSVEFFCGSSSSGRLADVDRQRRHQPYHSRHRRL
The target is the same in series [3]. Description: Inhibition of Trypanosoma cruzi cruzipain using Z-Phe-Arg-AMC as substrate at 10 uM incubated for 5 mins prior to substrate addition measured after 10 mins by fluorescence assay.
Series [4] shares this target. Description: Slow binding inhibition of Trypanosoma cruzi cruzipain using Z-Phe-Arg-AMC as substrate at 5 to 500 nM after 30 mins by fluorescence assay.
In series [5] the test system is Trypanosoma cruzi. Description: Antitrypanosomal activity against epimastigote stage of Trypanosoma cruzi Dm28c infected in African green monkey Vero cells after 72 hrs relative to untreated control. The class given is functional, organism-based.
Series [6] addresses Cruzipain (Trypanosoma cruzi) (UniProt P25779). Nature of the series: Reversible inhibition of Trypanosoma cruzi cruzipain at 10 uM pre-incubated for 30 mins.
In series [7] the test system is Trypanosoma cruzi. Description: Antitrypanosomal activity against amastigote stage of Trypanosoma cruzi Dm28c infected in African green monkey Vero cells assessed as growth inhibition at 4 times IC50 incubated 8 hrs post infection measured after 24 hrs relative to control. Format: functional.
A short description of series [8]: Selectivity index, ratio of CC50 for African green monkey Vero cells to IC50 for epimastigote stage of Trypanosoma cruzi Dm28c. Format: functional.
In series [9] the target is Cruzipain (Trypanosoma cruzi) (UniProt P25779). Nature of the series: Inhibition of Trypanosoma cruzi cruzipain using Z-Phe-Arg-AMC as substrate at 2 uM incubated for 5 mins prior to substrate addition measured after 10 mins by fluorescence assay.
The target in series [10] is T1, Cruzipain (Trypanosoma cruzi, UniProt P25779). Description: Non-competitive inhibition of Trypanosoma cruzi cruzipain using Z-Phe-Arg-AMC as substrate assessed as function of velocity after 30 mins.
T1 sequence (P25779 whole entry): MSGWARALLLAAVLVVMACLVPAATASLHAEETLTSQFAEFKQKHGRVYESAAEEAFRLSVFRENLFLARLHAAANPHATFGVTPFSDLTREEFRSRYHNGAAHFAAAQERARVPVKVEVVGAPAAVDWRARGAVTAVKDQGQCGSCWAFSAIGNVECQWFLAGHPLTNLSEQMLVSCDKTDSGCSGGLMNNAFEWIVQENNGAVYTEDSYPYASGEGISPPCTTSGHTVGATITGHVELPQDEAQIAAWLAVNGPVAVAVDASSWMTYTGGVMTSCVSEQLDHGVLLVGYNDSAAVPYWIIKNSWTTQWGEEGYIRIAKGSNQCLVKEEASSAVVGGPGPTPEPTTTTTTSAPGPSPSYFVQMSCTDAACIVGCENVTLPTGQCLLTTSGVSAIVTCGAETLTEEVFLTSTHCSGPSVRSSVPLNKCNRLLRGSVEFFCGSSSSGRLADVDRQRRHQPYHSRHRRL
Series [11] relates to Trypanosoma cruzi. Nature of the series: Antitrypanosomal activity against amastigote stage of Trypanosoma cruzi Dm28c infected in African green monkey Vero cells assessed as growth inhibition at IC50 incubated 8 hrs post infection measured after 24 hrs relative to control. The class given is functional.
Series [12] has as its system Trypanosoma cruzi. Nature of the series: Antitrypanosomal activity against amastigote stage of Trypanosoma cruzi Dm28c infected in African green monkey Vero cells assessed as growth inhibition at 2 times IC50 incubated 8 hrs post infection measured after 24 hrs relative to control. Format: functional.
Series [13] addresses T1, Cruzipain. Nature of the series: Non-competitive inhibition of Trypanosoma cruzi cruzipain using Z-Phe-Arg-AMC as substrate assessed as function of Vmaxapp after 30 mins.
Series [14] has as its system Trypanosoma cruzi. Description: Antitrypanosomal activity against amastigote stage of Trypanosoma cruzi Dm28c infected in African green monkey Vero cells assessed as growth inhibition at 1 uM incubated 8 hrs post infection measured after 24 hrs relative to control. Format: functional. Particulars: read-out: GI.
The test system of series [15] is Trypanosoma cruzi. Nature of the series: Antitrypanosomal activity against amastigote stage of Trypanosoma cruzi Dm28c infected in African green monkey Vero cells assessed as growth inhibition at 15 uM incubated 8 hrs post infection measured after 24 hrs relative to control. To be noted: read-out: GI. Format: functional.
Series [16] deals with Trypanosoma cruzi. Description: Antitrypanosomal activity against amastigote stage of Trypanosoma cruzi Dm28c infected in African green monkey Vero cells assessed as growth inhibition at 30 uM incubated 8 hrs post infection measured after 24 hrs relative to control. To be noted: read-out: GI. Format: functional.

Activity calls are given as the source filed them. No cut-off for these calls is given here.

One may read the CC50 as the concentration at which the toxic effect on the cells reaches its halfway point. As a reminder, the inhibition is the percentage by which the read-out fell short of the control. As a reminder, the IC50 is the point on the concentration scale where inhibition reaches its midpoint. In general, Ki refers to a dissociation constant, usually derived from enzyme kinetics or from competition with a known ligand.

In series [1], `C/C(=N\NC(N)=[Se])c1cccc(Br)c1` returned a CC50 at 72 h of 46.4 µM. Moreover, the figures for the inhibition in [2], in series [3] and in series [9] were 81%, 98% and 87%, respectively. Further, the inhibition entry in [4] and in series [6] was “Active” each time. In the series on Trypanosoma cruzi [5], this compound had an IC50 of 1.2 µM. Besides, the entries for the “growth inhibition (GI)” value with Trypanosoma cruzi [7], in the series with Trypanosoma cruzi [11] and in the series with Trypanosoma cruzi [12] were 78%, 76% and 77%, respectively. For the same compound, the “Ratio CC50/IC50” value in series [8] is listed as 39. Moreover, the Ki on Cruzipain [10] turned out to be 0.0297 µM.

With `NC(=[Se])N/N=C/c1ccc(Cl)c(Cl)c1`, it took 95.1 µM to reach half-maximal cytotoxicity in series [1] (CC50 at 72 h). Also, the inhibition is 57% in [2], 99% in series [3] and 96% in series [9]. This compound also registered an IC50 with Trypanosoma cruzi [5] of 2.3 µM. Also, the “growth inhibition (GI)” value in the series on Trypanosoma cruzi [7] came to 72%; in the series on Trypanosoma cruzi [11], 63%; in the series with Trypanosoma cruzi [12] it was 69%. Moreover, the “Ratio CC50/IC50” value in [8] came to 41.

`NC(=[Se])N/N=C/c1cccc(Br)c1` gave a CC50 at 72 h in series [1] of 172 µM. Besides, the inhibition in [2] turned out to be 40%; in series [3], 93%; in series [9], 93%. Inhibition in the series with Trypanosoma cruzi [5] was half-maximal at 5.9 µM (IC50). In series [8], the “Ratio CC50/IC50” value is on record as 29.

As for `CCCC/C(=N/NC(N)=[Se])c1ccc(Cl)c(Cl)c1`, the midpoint of cytotoxicity in series [1], the CC50 at 72 h, lay at 81.8 µM. The inhibition in series [2] was 95%; in series [3], 100%; in series [9], 98%. For the same compound, in series [4], the inhibition result is “Active”. 3.2 µM corresponded to half-maximal inhibition in the series with Trypanosoma cruzi [5] (IC50). Also, the Ki at Cruzipain [13] is 0.0064 µM; at Cruzipain [10], 0.0037 µM. In addition, the “growth inhibition (GI)” value in the series with Trypanosoma cruzi [7] came to 74%; in the series with Trypanosoma cruzi [11], 66%; with Trypanosoma cruzi [12], 73%. The “Ratio CC50/IC50” value in [8] came to 25.

For the compound `C/C(=N/NC(N)=S)c1cccc(Br)c1`, the inhibition in series [2] came to 24%; in series [3], 80%; in [9] it was 79%. Further, the Ki at Cruzipain [10] is 0.142 µM.

In series [1], `NC(=[Se])NN=C(c1cccc(Br)c1)c1cccc(Br)c1` registered a CC50 at 72 h of 71.2 µM. The figures for the inhibition in series [2], in series [3] and in [9] were 90%, 99% and 98%, respectively. In [4], the inhibition result is “Active”. The compound also had an IC50 with Trypanosoma cruzi [5] of 5.2 µM. In addition, the “Ratio CC50/IC50” value in series [8] is 14. Further, the Ki at Cruzipain [10] is 0.0133 µM.

In series [1], `O=C(Cn1ccnc1[N+](=O)[O-])NCc1ccccc1` [BENZNIDAZOLE] registered a CC50 at 72 h of 309 µM. Besides, half-maximal inhibition in the series on Trypanosoma cruzi [5] (IC50) was put at 12.5 µM. In the series on Trypanosoma cruzi [14], the inhibition of growth at 1 µM was 27%. The inhibition of growth at 15 µM in the series on Trypanosoma cruzi [15] worked out at 77%. For the same compound, the inhibition of growth at 30 µM with Trypanosoma cruzi [16] was 85%. The “Ratio CC50/IC50” value in series [8] was 25.

Consider `NC(=[Se])N/N=C/c1cccc(C(F)(F)F)c1`, for which, in [1], the CC50 at 72 h stood at 167 µM. Besides, the inhibition in [2] stood at 24%; in series [3], 91%; in [9], 88%. In the series with Trypanosoma cruzi [5], this compound showed an IC50 of 3.8 µM. The entries for the “growth inhibition (GI)” value in the series on Trypanosoma cruzi [7], with Trypanosoma cruzi [11] and with Trypanosoma cruzi [12] were 74%, 34% and 70%, respectively. Moreover, in series [8], the “Ratio CC50/IC50” value stood at 44.

The values are drawn from ChEMBL document CHEMBL3217446, “Selenosemicarbazones as potent cruzipain inhibitors and their antiparasitic properties against Trypanosoma cruzi” (Medchemcomm, 2012).
